# Test results taken from patent publication EP4567115A1, “METHOD FOR PRODUCING RIBOSOME IN CELL-FREE PROTEIN SYNTHESIS SYSTEM” (priority 2022, dated 2024).
# How the values were obtained:
# Type in all cases: biochemical, E. coli
# [1] = test system: native ribosomes; test: Femtoliter droplet assay, control cell extract with pT7_oSD_or1_LacZ reporter; conditions: 100 µM spectinomycin, 5 nM pT7_oSD_or1_LacZ reporter
# Protocol: A mixed oil consisting of light mineral oil (Sigma-Aldrich Corporation, St. Louis, MO, USA), 4.5% sorbitan monooleate (Nacalai Tesque), and 0.5% Triton® X-100 (Nacalai Tesque) was provided. The solution after the second reaction and the mixed oil were mixed and a microtube (Maruemu Corporation, Osaka, Japan) was tapped 20 times to obtain an emulsion. The resulting emulsion was incubated at 37°C for 2 hours to 17 hours, and bright field and fluorescence images of the droplets were acquired over time using a confocal fluorescence microscope LSM700 (Carl Zeiss AG, Oberkochen, Germany). The 488 nm laser was focused using an oil-immersion objective lens (Plan-Apochromat 40x/1.4 Oil DIC M27, Carl Zeiss AG) and oil-immersion oil (ImmersolTM518F, Carl Zeiss AG).
# Next, a control experiment was performed using a control cell extract containing only native ribosomes and a pT7_oSD_or1_LacZ reporter. The control cell extract was mixed with 5 nM pT7_oSD_or1_LacZ reporter. In this condition, no fluorescence from native ribosomes was detected in the bulk assay (Fig. 10d).
# [2] = test system: endogenous ribosome; test: Spectinomycin concentration optimisation, sonicated S12 cell extract with pT7_wtSD_LacZ reporter; conditions: spectinomycin concentration 5 mM
# Protocol: Next, the optimal concentration of spectinomycin was examined. BL21 Star™ (DE3) lacZ::frt was transformed with a plasmid containing rRNA with or without C1192U spectinomycin resistance (SpcR). These bacterial strains were cultured in the presence of 0.1 mM IPTG for 3 hours, and the sonicated S12 cell extract and pT7_wtSD_LacZ reporter were mixed at various spectinomycin concentrations. […] Therefore, in the following experiments, the spectinomycin concentration was set to 5 mM unless otherwise specified.
# [3] = target: T1, K43T mutant of 30S r-protein S12 (Escherichia coli, UniProt P0A7S3, K43T); test: Bulk assay of in vitro produced 70S ribosome with S12 K43T mutant (pT7_oSD_or1_LacZ reporter), with streptomycin; conditions: gene encoding K43T mutant of 30S r-protein S12; in the presence of spectinomycin and streptomycin
# T1 construct: made in house; host or cells: cell-free transcription/translation in E. coli S150 cell extract (first reaction)
# Protocol: (§1) For the second reaction, a second reaction solution was prepared which contained 3.6 µL of the cell extract, an antibiotic (200 µM spectinomycin, 20 µg/mL streptomycin, 3 mM clindamycin, or 240 nM thiostrepton), 3 nM of the reporter plasmid, and 1 mM of IPTG. Note that when the reporter plasmid expressed LacZ, the second reaction solution included 66 µM of 5-chloromethylfluorescein di-β-D-galactopyranoside (CMFDG; Invitrogen, Waltham, MA, USA) as a substrate for LacZ. In the second reaction, 15 µL of the second reaction solution was added to and mixed with 15 µL of the solution after the first reaction, and the signal of the reporter was then measured. […] The signal of the reporter was quantified at λex = 485 nm and λem = 535 nm by using a fluorescence microplate reader, Fluoroskan Ascent FL™ (Thermo Fisher Scientific) or Infinite® 200 PRO (TECAN, Mannedorf, Switzerland).
# (§2) A gene encoding a K43T mutant of 30S r-protein S12, which mutant confers streptomycin resistance to ribosomes, was used to produce a 70S ribosome with streptomycin resistance. […] In the second reaction, the translational activity of the ribosomal SSU was then detected by a bulk assay using the pT7_oSD_or1_LacZ reporter in the presence of spectinomycin and in the presence or absence of streptomycin.
# [4] = target: T2, 30S r-protein S12 K43T mutant (Escherichia coli, UniProt P0A7S3, K43T); test: Bulk assay of in vitro produced SSU with S12 K43T mutant, spectinomycin and streptomycin in the second reaction; conditions: SSU only; gene encoding 30S r-protein S12 K43T mutant; in the presence of spectinomycin and streptomycin
# T2 construct: made in house; host or cells: cell-free transcription/translation in E. coli S150 cell extract (first reaction)
# Protocol: as §1
# The in vitro production of ribosomal SSU was specifically performed by the following procedure. […] The fluorescence of the reaction solution was measured by a bulk assay or a femtoliter droplet assay. In the bulk assay, the reporter signal was kinetically measured at λex = 485 nm and λem = 535 nm by using a Fluoroskan Ascent FL™ (Thermo Fisher Scientific) or Infinite® 200 PRO (TECAN) at 37°C for 120 minutes, 720 minutes, or 900 minutes. […]
# [5] = target: T3, wild-type 30S r-protein S12 (Escherichia coli, UniProt P0A7S3); test: Bulk assay of in vitro produced 70S ribosome with wild-type S12 (pT7_oSD_or1_LacZ reporter), with streptomycin; conditions: wild-type 30S r-protein S12 gene; in the presence of spectinomycin and streptomycin
# T3 construct: made in house; host or cells: cell-free transcription/translation in E. coli S150 cell extract (first reaction)
# Protocol: as §1, §2
# [6] = test system: LSU formed using 32 different LSU r-protein genes excluding r-protein L11 gene; test: Bulk assay of in vitro formed LSU lacking r-protein L11 (LacZ reporter) in the presence of thiostrepton; conditions: in the presence of thiostrepton (120 nM, Fig. 5b); LSU formed without r-protein L11 gene
# Protocol: as §1
# (§3) The in vitro production of ribosomal LSU was specifically performed by the following procedure. […] The fluorescence of the reaction solution was measured by a bulk assay in the same manner as in the case of the SSU.
# (§4) Thiostrepton is known to inactivate an LSU by binding to 50S r-protein L11. […] In the second reaction, the translational activity of the ribosomal LSU was then detected by a bulk assay using the pT7PCONS_EpsA20_wtSD_lacZ reporter in the presence or absence of thiostrepton.
# [7] = test system: native ribosome (Escherichia coli); test: Bulk assay of native ribosome translational activity (LacZ reporter) with or without thiostrepton in the second reaction; conditions: in the presence of thiostrepton (120 nM, Fig. 5a); pT7PCONS_EpsA20_wtSD_lacZ reporter
# Protocol: as §1, §3, §4
smiles,measurement,setting,value
CN[C@@H]1[C@H](O)[C@H](NC)[C@H]2O[C@@]3(O)C(=O)C[C@@H](C)O[C@H]3O[C@@H]2[C@H]1O [spectinomycin],fluorescence derived from native ribosomes,[1],fluorescence derived from native ribosomes can be removed
same,activity of the endogenous ribosome,[2],strongly suppressed
[H]/N=C(/N)N[C@H]1[C@H](O)[C@@H](O)[C@H](O[C@@H]2O[C@@H](C)[C@](O)(C=O)[C@H]2O[C@@H]2O[C@@H](CO)[C@H](O)[C@@H](O)[C@@H]2NC)[C@@H](N/C(N)=N\[H])[C@@H]1O [streptomycin],reporter signal (translational activity of the ribosomal SSU),[3],a signal was detected
same,reporter signal,[4],the reporter signal was not affected
same,reporter signal (translational activity of the ribosomal SSU),[5],no signal was detected
C=C(NC(=O)C(=C)NC(=O)c1csc(C2=N[C@@H]3c4csc(n4)[C@H]4NC(=O)c5csc(n5)[C@H]([C@](C)(O)[C@@H](C)O)NC(=O)[C@H]5CSC(=N5)/C(=C/C)NC(=O)[C@H]([C@@H](C)O)NC(=O)c5csc(n5)[C@]3(CC2)NC(=O)[C@H](C)NC(=O)C(=C)NC(=O)[C@H](C)NC(=O)[C@H]([C@@H](C)CC)N[C@@H]2C=Cc3c([C@H](C)O)cc(nc3[C@H]2O)C(=O)O[C@@H]4C)n1)C(N)=O [thiostrepton],LSU signal,[6],An LSU signal was detected
same,signal of LSU (activity of the native ribosome),[7],the signal of LSU disappeared
